Results as given in PMC4976923, “Potent Allosteric Dengue Virus NS5 Polymerase Inhibitors: Mechanism of Action and Resistance Profiling” (PLoS Pathogens, 2016).

Legend:
[1] = system: DENV4 FL NS5; test: Thermo-denaturation assay, recombinant FL NS5; type: binding; conditions: for Tm change compared to DMSO control, DENV4 FL NS5 WT: 50 µM compound (Fig 7 in S1 Text); for Protein melting temperature, Tm, DENV4 FL NS5 WT: 50 µM compound, DMSO 37.5 (Fig 7 in S1 Text); for Protein melting temperature Tm with compound, FL NS5: +50 μM compound, DMSO control 42.5
Experimental: (§1) Site-directed alanine mutations of DENV4 FL NS5 cDNA were performed using pET28-D4-MY01-22713 NS5FL [23] as a template, according to the manufacturer’s protocol (Stratagene, USA). Protein expressions of DENV1-4 FL NS5 and their stability analyses by thermo-fluorescence were performed as described previously. DENV de novo initiation and elongation FAPA assays were earlier described. […]
(§2) 6 Fi g .5. Ef fects of N -pocket compounds on DENV pol ymerase thermo-stability. Melting
(§3) 7 temperatur e (Tm) w as ass essed b y thermo-d enatur ation in presence of the S YPRO Oran ge
(§4) 8 dye as described in Materials and Methods. (A-F) Representative meltin g curves of DEN V4
(§5) 10 inhibitors or 5 % DMSO control. […]
(§6) 16 controls treated with DMSO.

[2] = system: Human rhinovirus (7 serotypes); test: Human rhinovirus cytopathic inhibition in HeLa cells; type: cell-based; conditions: Rhinovirus A, 120 h, cytopathic inhibition over 5 days
[3] = system: WNV (New York strain 3356) replicon; test: WNV replicon cell-based assay; conditions: 0–50 μM, 2 days
Experimental: (§7) 4 Compound testing in cells transiently expressing DENV and WNV replicon. R enilla
(§8) 5 luciferas e sub-genomic replicon of DENV2 (strai n New Guinea C) or WN V (New York
(§9) 6 strain 3356) cloned into the pACYC plasmid, was in vitro transcribed using a T7 mMessage
(§10) 7 mMachine kit (Ambion, Austin, TX) after linearization with ClaI, as descri bed previousl y
(§11) 8 [5]. A549 cells were electroporated with 10 μg of replicon RNA using a GenePulser Xcell
(§12) 9 system (Bio-Rad, H ercul es, CA) with 3 pulses, at 450 V, 25 µF, at 5- 10 sec intervals.
(§13) 10 Transfected cells wer e seeded into a 96-w ell plate at 1.5 × 10^4 cells per well, followed b y
(§14) 11 treatment with the compound or the dimethyl sulfoxide (DMSO) control and incubation at
(§15) 12 37°C in 5 % CO2. At various time points post-transfection, cells were w ash ed once with
(§16) 13 phosphate-buffered saline (PBS) and l ysed in 20 μl 1× l ysis buffer (Promega, USA) and
(§17) 14 assa yed fo r luciferase si gnals with a Clarit y luminescence microplate reader (BioT ek, USA)
(§18) 15 using the renilla luciferase assa y s ystem (Promega, USA). CellTiter -Glo reagent was added to
(§19) 16 the l ysates to determine t he c ytotoxicit y effects of compounds.Duplicate w ells were seeded
WNV ( New York strain 3356) replicon cDNA was electropo rated in BHK -21 cells, […]
4 from replicon cells were determined b y measuring cellular renilla luciferase levels. […]
5 points were measured in duplicates.

[4] = system: DENV2-NGC replicon L512V/E802D; type: cell-based; conditions: electroporated BHK-21; 2 days
[5] = biological target: T1, FL NS5 from BHK-21 DENV2-NGC replicon cell lysate (Dengue virus type 2, UniProt P14340); test: Cellular thermal shift assay with replicon cell lysate; type: binding; conditions: +50 μM compound; DMSO control 42.5
T1 construct: FL NS5 from DENV-replicon lysates; expressed in transfected cells; host or cells: BHK-21 cells carrying a DENV2 (New Guinea C) sub-genomic replicon
Text: 1 Fig. 4.Ph ylo genetic tr ee repres enting relatedn ess of N-pocket amino acid residues from
2 different members of the Flavivirus famil y, derived from Clustal Omega program [ 8] .
as §2, §3, §4
10 inhibitors or 5 % DMSO control. (G) Cellular thermal shifts assays [ 9] wer e perfo rmed with
Bri efl y, l ysates w er e
12 incubated with compounds or 5 % DMSO for 1 hr at 4 °C, followed b y heating at 30- 70 °C.
13 Samples were spun and the supernat ants loaded onto 12 % SDS -PAGE gel s , followed b y gel
14 electrophoresis and west ern blotting with anti- DE NV2 NS5 antibody (GeneTex, USA). Table
as §6
(1 picture or pasted object on this page, not shown here)

[6] = biological target: T2, DENV2 FL NS5 WT (Dengue virus type 2, UniProt P14340); type: binding; conditions: 50 µM compound; for Protein melting temperature, Tm, DENV2 FL NS5 WT: DMSO 35.5
T2 construct: compared against activities of WT DENV2 or DENV4 FL NS5 proteins; made in house

[7] = system: DENV2-NGC replicon Wild Type; test: Transient WT DENV2-NGC replicon in BHK-21 cells; conditions: Dengue virus, DENV2, BHK-21, 48 h, read-out: EC50, DENV2-NGC Replicon, Wild Type
Experimental: as §7, §8, §9, §10, §11, §12, §13, §14, §15, §16, §17, §18, §19

[8] = system: HCV replicon; test: HCV replicon firefly luciferase assay; type: cell-based, hepatitis C virus (HCV) genotype 1b; conditions: Hepatitis C virus; HuH-7; 48 hr; tested up to 25 μM
Experimental: A549, BHK-21 and Huh7 cells bearing stable DENV2 sub-genomic replicon or transiently electroporated DENV2-NGC replicon or infectious virus cDNAs were seeded into 384-well microplate (3,000 cells per well). After over-night incubation at 37°C with 5% CO2, the cells were treated with 2-fold serially diluted compounds, starting from 20 or 50 μM. At 48 hr of post-incubation, renilla luciferase activities were measured with the ViviRen live-cell substrate (Promega, USA) according to the manufacturer’s protocol. CellTiter-Glo reagent (Promega, USA) was then added to determine cytotoxic effects of compounds. For the HCV replicon assay, Huh-7.5 cells harboring the HCV replicon were seeded into a 96-well microplate (20,000 cells per well). At 48 hr after compound treatment, cells were assayed for firefly luciferase activity by using a Bright-Glo luciferase assay (Promega, USA). NITD-008, a nucleoside inhibitor of DENV and HCV was added as a control.
1 containing 2 % FBS, 1mM L-glutamine and 1 % penicillin-streptom ycin and incubated over-
At 24 h post-seeding, cells were inf ected with DENV1-4 at […]
8 DENV envelope protein ) and DRAQ5 (for nucl ear DNA) . Quantifications of DENV
9 envelope protein were determined using the Opera high content imaging s ystem and anal ysis […]
17 µM concentrations. At 48 hr of post-incubation, r enilla luciferas e activities were measured […]

[9] = biological target: T3, DENV4 FL NS5 L512V (Dengue virus type 4, UniProt P09866, L2999V); type: binding; conditions: 50 µM compound; for Protein melting temperature, Tm, DENV4 FL NS5 L512V: DMSO 36.5
T3 construct: Recombinant DENV2 (A, C) and DENV4 (B, D) FL NS5 proteins bearing single or double amino acid changes; made in house

[10] = biological target: DENV4 RdRp domain (aa 268–900) (Dengue virus type 4, UniProt P09866); test: Thermo-denaturation assay, recombinant RdRp domain; type: binding; conditions: +50 μM compound; DMSO control 50
Experimental: as §1, §2, §3, §4, §5, §6

[11] = biological target: T4, DENV2 FL NS5 E802D (Dengue virus type 2, UniProt P14340, E3293D); type: binding; conditions: 50 µM compound; for Protein melting temperature, Tm, DENV2 FL NS5 E802D: DMSO 36
T4 construct: Recombinant DENV2 (A, C) and DENV4 (B, D) FL NS5 proteins bearing single or double amino acid changes; made in house

T3 sequence (P09866 2488-3387 L2999V): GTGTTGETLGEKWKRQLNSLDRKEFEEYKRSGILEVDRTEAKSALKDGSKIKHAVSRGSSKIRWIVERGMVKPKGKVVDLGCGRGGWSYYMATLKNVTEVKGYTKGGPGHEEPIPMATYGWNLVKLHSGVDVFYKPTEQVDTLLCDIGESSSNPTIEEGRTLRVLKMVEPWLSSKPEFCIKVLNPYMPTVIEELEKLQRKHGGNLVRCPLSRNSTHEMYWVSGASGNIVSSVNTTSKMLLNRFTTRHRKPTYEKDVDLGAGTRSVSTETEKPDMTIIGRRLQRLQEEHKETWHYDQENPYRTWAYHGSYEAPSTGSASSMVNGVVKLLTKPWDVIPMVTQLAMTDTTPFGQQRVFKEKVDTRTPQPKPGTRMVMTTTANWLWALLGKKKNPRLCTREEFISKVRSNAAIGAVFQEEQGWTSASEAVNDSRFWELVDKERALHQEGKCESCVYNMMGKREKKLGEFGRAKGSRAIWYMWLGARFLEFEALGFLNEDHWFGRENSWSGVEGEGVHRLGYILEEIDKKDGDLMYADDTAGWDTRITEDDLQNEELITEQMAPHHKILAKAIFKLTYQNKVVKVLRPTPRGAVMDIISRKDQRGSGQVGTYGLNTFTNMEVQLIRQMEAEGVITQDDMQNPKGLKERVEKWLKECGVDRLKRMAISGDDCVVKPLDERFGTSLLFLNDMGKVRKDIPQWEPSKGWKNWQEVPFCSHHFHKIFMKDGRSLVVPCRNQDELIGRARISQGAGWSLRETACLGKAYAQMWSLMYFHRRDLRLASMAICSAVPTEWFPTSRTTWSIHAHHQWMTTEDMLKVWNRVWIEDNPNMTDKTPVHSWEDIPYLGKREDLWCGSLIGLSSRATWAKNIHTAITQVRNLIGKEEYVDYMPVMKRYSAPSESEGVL
Sequence of DENV4 RdRp domain (aa 268–900) (P09866 2753-3387): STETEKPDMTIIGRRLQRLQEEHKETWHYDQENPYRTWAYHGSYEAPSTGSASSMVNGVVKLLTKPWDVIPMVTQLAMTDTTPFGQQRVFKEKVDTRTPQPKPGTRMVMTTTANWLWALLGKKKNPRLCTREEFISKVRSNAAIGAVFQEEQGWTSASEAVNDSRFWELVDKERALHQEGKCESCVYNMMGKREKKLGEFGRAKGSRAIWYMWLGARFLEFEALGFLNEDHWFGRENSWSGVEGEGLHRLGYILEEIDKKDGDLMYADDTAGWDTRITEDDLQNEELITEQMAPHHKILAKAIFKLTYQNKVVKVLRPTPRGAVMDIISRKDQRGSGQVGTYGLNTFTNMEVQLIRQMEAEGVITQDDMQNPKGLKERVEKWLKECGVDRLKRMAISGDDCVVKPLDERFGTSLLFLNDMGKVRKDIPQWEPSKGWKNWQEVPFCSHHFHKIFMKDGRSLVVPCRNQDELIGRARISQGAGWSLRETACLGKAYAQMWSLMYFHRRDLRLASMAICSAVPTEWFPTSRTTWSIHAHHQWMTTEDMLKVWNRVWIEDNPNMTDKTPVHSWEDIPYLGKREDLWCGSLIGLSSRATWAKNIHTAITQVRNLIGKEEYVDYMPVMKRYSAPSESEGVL

SMILES | Tm change compared to DMSO control, DENV4 FL NS5 WT [1] [°C] | Protein melting temperature, Tm, DENV4 FL NS5 WT [1] [°C] | Protein melting temperature Tm with compound, FL NS5 [1] [°C] | EC50 [2] [µM] | activity in WNV replicon cell-based assay [3] | EC50 [4] [µM] | Protein melting temperature Tm with compound, FL NS5 from BHK-21 DENV2-NGC replicon cell lysate [5] [°C] | Tm change compared to DMSO control, DENV2 FL NS5 WT [6] [°C] | Protein melting temperature, Tm, DENV2 FL NS5 WT [6] [°C] | EC50 [7] [µM] | EC50 [8] [µM] | Tm change compared to DMSO control, DENV4 FL NS5 L512V [9] [°C] | Protein melting temperature, Tm, DENV4 FL NS5 L512V [9] [°C] | Protein melting temperature Tm with compound, RdRp domain [10] [°C] | Tm change compared to DMSO control, DENV2 FL NS5 E802D [11] [°C] | Protein melting temperature, Tm, DENV2 FL NS5 E802D [11] [°C]
COc1cccc(S(=O)(=O)NC(=O)c2cc(-c3ccc(C#CCO)s3)c(OC)cc2OC)c1 [Compound 27] | 1 | 38.5 | 46.5 | > 50 | inactive | 28.4 | 47.5 | 1.5 | 37 | 7.83 | > 25 | 0 | 36.5 | 58 | 0 | 36
COc1cc(OC)c(-c2ccc(C#CCO)s2)cc1C(=O)NS(=O)(=O)c1cccc2cccnc12 [Compound 29] | 3 | 40.5 | 51.5 | > 50 | inactive | 38.8 | 50 | 4.5 | 40 | 6.7 | > 25 | 1.5 | 38 | 64 | 2.0 | 38
